In patent US20070254863A1 (priority 2006, published 2007):
Like-named read-outs stand apart in the source and are kept apart here.

Tests used:
rat SUR2A = rat SUR2A (Rattus norvegicus, UniProt Q63563); test: In vitro binding affinity to rodent KATP channels: SUR2A ([3H]P1075 / [3H]glibenclamide displacement, COS cell membranes)
Description: Therefore, two strategies can be used to detect binding to the sulfonylurea site on SUR2A.
Membranes from COS-cells transiently expressing rat SUR2A were incubated in the presence of the radioligands with increasing concentrations of test compounds as described above. […] For each test compound four displacement curves were measured (displacement of [^3H]P1075 from the rat isoform of the wild type receptor and displacement of [^3H]glibenclamide from the rat isoform of SUR2AY1205S). Per curve 9-15 distinct concentrations were tested covering the relevant range. All measurements were repeated at least 5 times in independent experiments.
(§1) [^3H]glibenclamide (specific activity 51 Ci mmol^−1) was obtained from NEN (Dreieich, Germany). Where needed, stock solutions were prepared in dimethylsulfoxide with a final solvent concentration in the media below 1%.
(§2) SUR- or Kir6.x isoforms were used either subcloned in the pcDNA (hamster SUR1, mouse Kir6.2) or pCMV vector (rat SUR2A, SUR2B).
(§3) For transfection, the cells were incubated 4 hours in a Tris-buffered salt solution containing DNA (5-10 μg/ml) plus DEAE-dextran (1 mg/ml), 2 min in HEPES-buffered salt solution plus dimethylsulfoxide (10%) and 4 hours in DMEM-HG plus chloroquine (100 μM). Cells were then returned to DMEM-HG plus 10% FCS. […] For binding experiments, resuspended membranes (final protein concentration 5-50 μg/ml) were incubated in “Tris-buffer” (50 mM, pH 7.4) containing either [^3H]glibenclamide (final concentration 0.3 nM or 3 nM and nonspecific binding defined by 100 nM or 1 μM glibenclamide for SUR1 or SUR2Y1205S-isoforms, respectively) or [^3H]P1075 (final concentration 3 nM, nonspecific binding defined by 100 μM pinacidil) and increasing concentrations of the test compounds. The free Mg^2+ concentration were kept close to 0.7 mM. […] Incubations were carried out for 1 h at room temperature and were terminated by rapid filtration through Whatman GF/B filters.
(§4) The inhibition constant (Ki value) of the test substances was calculated from the respective IC50 value, and was stated as the negative logarithmic value thereof (pKi).

hamster SUR1 = target: T1, hamster SUR1 (Cricetus cricetus, UniProt Q09427); test: In vitro binding affinity to rodent KATP channels: SUR1 ([3H]glibenclamide displacement, COS cell membranes)
T1 construct: expressed in transfected cells; host or cells: COS-1 cells, transient (pcDNA vector)
T1 sequence (Q09427 whole entry): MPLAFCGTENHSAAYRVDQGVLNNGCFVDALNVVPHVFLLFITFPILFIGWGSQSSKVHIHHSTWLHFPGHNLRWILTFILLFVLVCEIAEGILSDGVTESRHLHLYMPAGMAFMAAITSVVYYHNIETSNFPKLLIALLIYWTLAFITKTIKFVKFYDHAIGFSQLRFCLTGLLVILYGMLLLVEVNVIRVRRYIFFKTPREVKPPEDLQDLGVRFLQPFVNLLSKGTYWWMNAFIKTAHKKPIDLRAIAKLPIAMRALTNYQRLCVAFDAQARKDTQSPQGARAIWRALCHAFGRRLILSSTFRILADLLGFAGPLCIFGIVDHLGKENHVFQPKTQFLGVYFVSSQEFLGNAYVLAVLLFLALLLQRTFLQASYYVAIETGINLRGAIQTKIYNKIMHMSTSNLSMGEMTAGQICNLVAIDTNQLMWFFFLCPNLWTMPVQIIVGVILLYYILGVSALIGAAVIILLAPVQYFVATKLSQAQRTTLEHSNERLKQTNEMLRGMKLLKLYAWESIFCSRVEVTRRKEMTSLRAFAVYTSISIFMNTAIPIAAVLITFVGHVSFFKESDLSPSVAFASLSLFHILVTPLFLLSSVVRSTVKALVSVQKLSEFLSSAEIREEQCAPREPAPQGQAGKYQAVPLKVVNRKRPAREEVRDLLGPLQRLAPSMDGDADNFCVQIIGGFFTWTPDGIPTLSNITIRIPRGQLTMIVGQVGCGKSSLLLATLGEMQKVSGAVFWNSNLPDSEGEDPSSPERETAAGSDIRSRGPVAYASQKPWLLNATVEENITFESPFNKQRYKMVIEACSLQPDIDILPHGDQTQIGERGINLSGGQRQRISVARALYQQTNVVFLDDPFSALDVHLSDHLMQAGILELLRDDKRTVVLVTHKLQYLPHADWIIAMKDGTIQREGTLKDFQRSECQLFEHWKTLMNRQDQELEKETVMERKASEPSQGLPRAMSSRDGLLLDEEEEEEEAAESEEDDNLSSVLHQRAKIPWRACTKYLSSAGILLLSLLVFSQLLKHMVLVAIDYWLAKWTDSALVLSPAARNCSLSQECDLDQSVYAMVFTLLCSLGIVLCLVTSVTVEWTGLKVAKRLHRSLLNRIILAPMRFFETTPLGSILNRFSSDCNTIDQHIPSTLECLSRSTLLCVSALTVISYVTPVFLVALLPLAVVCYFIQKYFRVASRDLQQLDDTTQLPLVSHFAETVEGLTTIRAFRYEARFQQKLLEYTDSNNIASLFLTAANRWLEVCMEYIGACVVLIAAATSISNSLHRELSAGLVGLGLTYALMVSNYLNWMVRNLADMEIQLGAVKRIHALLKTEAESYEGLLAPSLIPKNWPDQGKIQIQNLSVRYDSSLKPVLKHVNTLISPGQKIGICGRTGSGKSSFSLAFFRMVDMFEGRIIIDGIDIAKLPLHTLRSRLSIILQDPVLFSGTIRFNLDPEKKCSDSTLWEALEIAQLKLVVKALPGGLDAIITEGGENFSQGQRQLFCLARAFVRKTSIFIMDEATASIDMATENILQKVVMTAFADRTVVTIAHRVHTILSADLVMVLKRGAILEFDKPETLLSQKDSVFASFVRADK
Description: 1. In Vitro Binding Affinity of the Test Compounds to Rodent KATP Channels
Competitive binding experiments were performed to characterize the affinity of the test compounds for the binding sites for sulfonylureas and KATP channel openers (KCOS) on hamster SUR1. To assess the affinity for the sulfonylurea site, membranes from COS-cells transiently expressing hamster SUR1 were incubated in the presence of [^3H]glibenclamide with increasing concentrations of test compounds. […] For each test compound four displacement curves were measured (+/−MgATP from the human and hamster isoform). Per curve 9-15 distinct concentrations were tested covering the relevant range. All measurements were repeated at least 5 times in independent experiments.
as §1, §2, §3, §4

[1] = hamster SUR1 in COS cell membranes, read-out: Affinity to SUR 1 (converted)
[2] = rat SUR2A in COS cell membranes

Chain of rat SUR2A (Q63563 whole entry): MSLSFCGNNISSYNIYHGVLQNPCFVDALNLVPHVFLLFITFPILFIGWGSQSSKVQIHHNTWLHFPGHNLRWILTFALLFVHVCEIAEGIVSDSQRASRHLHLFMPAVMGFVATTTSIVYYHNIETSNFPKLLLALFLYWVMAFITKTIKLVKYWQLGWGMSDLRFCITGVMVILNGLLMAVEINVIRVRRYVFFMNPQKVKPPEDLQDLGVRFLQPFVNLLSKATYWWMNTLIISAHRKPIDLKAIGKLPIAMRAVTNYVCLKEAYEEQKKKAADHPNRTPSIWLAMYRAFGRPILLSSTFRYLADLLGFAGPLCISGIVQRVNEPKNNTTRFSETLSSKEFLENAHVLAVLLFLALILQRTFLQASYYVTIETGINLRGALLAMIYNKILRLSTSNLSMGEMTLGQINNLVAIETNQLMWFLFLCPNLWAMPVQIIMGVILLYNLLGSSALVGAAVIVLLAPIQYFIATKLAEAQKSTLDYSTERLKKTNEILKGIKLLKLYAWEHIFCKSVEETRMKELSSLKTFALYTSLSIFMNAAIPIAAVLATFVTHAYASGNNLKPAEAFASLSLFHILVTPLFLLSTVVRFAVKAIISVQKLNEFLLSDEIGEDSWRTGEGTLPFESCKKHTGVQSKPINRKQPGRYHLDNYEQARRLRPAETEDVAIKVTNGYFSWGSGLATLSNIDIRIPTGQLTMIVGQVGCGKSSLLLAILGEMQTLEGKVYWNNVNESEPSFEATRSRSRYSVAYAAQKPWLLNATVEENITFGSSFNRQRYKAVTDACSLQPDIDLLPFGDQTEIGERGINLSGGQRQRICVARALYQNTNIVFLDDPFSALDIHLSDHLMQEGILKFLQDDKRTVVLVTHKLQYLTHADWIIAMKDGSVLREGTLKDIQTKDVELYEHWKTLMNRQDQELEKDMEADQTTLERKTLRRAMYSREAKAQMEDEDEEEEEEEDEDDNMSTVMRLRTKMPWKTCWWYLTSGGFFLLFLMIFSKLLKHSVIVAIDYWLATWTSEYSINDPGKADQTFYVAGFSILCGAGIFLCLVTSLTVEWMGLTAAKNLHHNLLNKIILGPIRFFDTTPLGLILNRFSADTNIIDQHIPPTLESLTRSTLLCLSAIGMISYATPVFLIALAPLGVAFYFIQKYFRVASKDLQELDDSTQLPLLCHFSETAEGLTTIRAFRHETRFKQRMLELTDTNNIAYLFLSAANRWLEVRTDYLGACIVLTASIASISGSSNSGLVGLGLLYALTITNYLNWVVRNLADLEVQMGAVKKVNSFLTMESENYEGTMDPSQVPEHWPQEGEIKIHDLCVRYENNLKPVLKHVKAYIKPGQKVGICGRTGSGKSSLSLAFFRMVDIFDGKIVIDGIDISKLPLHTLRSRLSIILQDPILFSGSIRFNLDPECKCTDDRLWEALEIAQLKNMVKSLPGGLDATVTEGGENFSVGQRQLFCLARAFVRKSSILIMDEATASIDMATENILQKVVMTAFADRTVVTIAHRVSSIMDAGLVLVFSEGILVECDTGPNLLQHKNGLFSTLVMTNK

Row | SMILES | pKi (rat SUR2A) | Ki (hamster SUR1; [1]) [µM] | also measured
1 | O=C(NN1CCCCC1)c1cn(-c2ccc(C(F)(F)F)cc2)c(-c2ccc(Cl)cc2Cl)n1 [2-(2,4-Dichloro-phenyl)-1-(4-trifluoromethyl-phenyl)-1H-imidazole-4-carboxylic acid piperidin-1-ylamide] | 5.3 | 2.51 | 
2 | O=C(NN1CCCCC1)c1nc(-c2ccc(Cl)cc2Cl)c(-c2ccc(Cl)cc2)s1 [5-(4-Chloro-phenyl)-4-(2,4-dichloro-phenyl)-thiazole-2-carboxylic acid piperidin-1-ylamide] | 5.5 | 2 | 
3 | O=S(=O)(N=C(NCCF)N1CC(c2ccccc2)C(c2ccc(Cl)cc2)=N1)c1ccc(Cl)cc1 (stereo not shown) [drawing 45, 4-Chloro-N-[[3-(4-chloro-phenyl)-4-phenyl-4,5-dihydro-pyrazol-1-yl]-(2-fluoro-ethylamino)-methylene]-benzenesulfonamide] | 4.6 | 25.1 | 
4 | CCCCCCC(C)(C)c1ccc([C@@H]2C[C@H](O)CC[C@@H]2CCCO)c(O)c1 (stereo in doubt) [CP55940-entantiomer, 5-(1,1-Dimethyl-heptyl)-2-[5-hydroxy-2-(3-hydroxy-propyl)-cyclohexyl]-phenol, reference compound] |  | 5.01 | 
5 | O=C(NN1CCCCC1)C1=NN(c2ccc(Cl)cc2)C(c2ccccc2)C1 (stereo not shown) [1-(4-Chloro-phenyl)-5-phenyl-4,5-dihydro-1H-pyrazole-3-carboxylic acid piperidin-1-ylamide] | 5.1 | 100 | 
6 | CCC1CN=C(N2CC(c3ccccc3)C(c3ccc(Cl)cc3)=N2)O1 (stereo not shown) [2-[3-(4-Chloro-phenyl)-4-phenyl-4,5-dihydro-pyrazol-1-yl]-5-ethyl-4,5-dihydro-oxazole] | 4.4 | 3.16 | 
7 | Cn1c(C(=O)NC2CCCCC2)nc(-c2ccc(Cl)cc2Cl)c1-c1ccc(Cl)cc1 |  | 100 | pKi (rat SUR2A; [2]): 4.9
8 | CCCCCNC(=O)c1nc(-c2ccc(Cl)cc2Cl)n(-c2ccc(Br)cc2)c1CC [1-(4-Bromo-phenyl)-2-(2,4-dichloro-phenyl)-5-ethyl-1H-imidazole-4-carboxylic acid pentylamide] |  | 0.794 | pKi (rat SUR2A; [2]): 5.6
9 | O=C(NN1CCCCC1)c1nc(-c2ccc(Cl)cc2Cl)n(-c2ccc(Br)cc2)c1Cl [1-(4-Bromo-phenyl)-5-chloro-2-(2,4-dichloro-phenyl)-1H-imidazole-4-carboxylic acid piperidin-1-ylamide] | 5.5 | 3.98 | 
10 | C[S+]([O-])c1c(C(=O)NN2CCCCC2)nc(-c2ccc(Cl)cc2Cl)n1-c1ccc(Cl)cc1 (stereo not shown) [1-(4-Chloro-phenyl)-2-(2,4-dichloro-phenyl)-5-methanesulfinyl-1H-imidazole-4-carboxylic acid piperidin-1-ylamide] |  | 100 | pKi (rat SUR2A; [2]): 4.9
11 | CN/C(=N\S(=O)(=O)N1CCCCCC1)N1CC(c2ccccc2)C(c2ccc(Cl)cc2)=N1 (stereo not shown) [Azepane-1-sulfonic acid [3-(4-chloro-phenyl)-4-phenyl-4,5-dihydro-pyrazol-1-yl]-methylamino-methyleneamide] | 4.9 | 25.1 | 
12 | CCN(CC)S(=O)(=O)N=C(SC)N1CC(c2ccccc2)C(c2ccc(Cl)cc2)=N1 (stereo not shown) [N,N-Diethylamino-1-sulfonic acid [3-(4-chloro-phenyl)-4-phenyl-4,5-dihydro-pyrazol-1-yl]-methylsulfanyl-methyleneamide] | 4.7 | 100 | 
13 | CNC(=NS(=O)(=O)c1ccc(Cl)cc1)N1CC(c2cccnc2)C(c2ccc(Cl)cc2)=N1 (stereo not shown) | 5.4 | 2.51 | 
14 | O=S(=O)(N=C(NCCF)N1CC(c2ccccc2)C(c2ccc(Cl)cc2)=N1)c1ccc(Cl)cc1 (stereo not shown) [drawing 46] | 5.0 |  | Affinity to SUR 1 (hamster SUR1; hamster SUR1 in COS cell membranes): 4.6
15 | N#Cc1cc(-c2ccc(Br)cc2)n(-c2ccc(Cl)cc2Cl)n1 [5-(4-Bromo-phenyl)-1-(2,4-dichloro-phenyl)-1H-pyrazole-3-carbonitrile] | 5.4 | 100 | 
16 | N#CCCNC(=NS(=O)(=O)c1ccc(Cl)cc1)N1CC(c2ccccc2)C(c2ccc(Cl)cc2)=N1 (stereo not shown) [4-Chloro-N-[[3-(4-chloro-phenyl)-4-phenyl-4,5-dihydro-pyrazol-1-yl]-(2-cyano-ethylamino)-methylene]-benzene sulfonamide] | 5.9 | 0.2 | 
17 | CCNCCN/C(=N\S(=O)(=O)c1ccc(Cl)cc1)N1CC(c2ccccc2)C(c2ccc(Cl)cc2)=N1 (stereo not shown) [4-Chloro-N-[[3-(4-chloro-phenyl)-4-phenyl-4,5-dihydro-pyrazol-1-yl]-(2-ethylamino-ethylamino)-methylene]-Benzenesulfonamide] | 5.3 | 7.94 | 
18 | O=S(=O)(N=C(NCC1CCNCC1)N1CC(c2ccccc2)C(c2ccc(Cl)cc2)=N1)c1ccc(Cl)cc1 (stereo not shown) | 4.9 | 0.631 | 
19 | Cc1c(NC(=O)N2CCCCC2)nn(-c2ccc(Cl)cc2Cl)c1-c1ccc(Cl)cc1 [Piperidine-1-carboxylic acid [5-(4-chloro-phenyl)-1-(2,4-dichloro-phenyl)-4-methyl-1H-pyrazol-3-yl]-amide] | 4.7 | 20 | 
20 | NC(=O)C1CCN(C(=NS(=O)(=O)c2ccc(Cl)cc2)N2CC(c3ccccc3)C(c3ccc(Cl)cc3)=N2)CC1 (stereo not shown) [1-{(4-Chloro-benzene-sulfonylimino)-[3-(4-chloro-phenyl)-4-phenyl-4,5-dihydro-pyrazol-1-yl]-methyl}-piperidine-4-carboxylic acid amide] | 5.2 | 3.16 | 
21 | O=C(NN1CCCCC1)c1nc(-c2ccc(Cl)cc2Cl)n(-c2ccc(Cl)cc2)c1CC(F)(F)F [1-(4-Chloro-phenyl)-2-(2,4-dichloro-phenyl)-5-(2,2,2-trifluoro-ethyl)-1H-imidazole-4-carboxylic acid piperidin-1-ylamide] | 5.7 | 15.8 | 
22 | CN/C(=N\S(=O)(=O)c1ccc(Cl)cc1)N1C[C@@H](c2ccccc2)C(c2ccc(Cl)cc2)=N1 [4-Chloro-N-{[3-(4-chloro-phenyl)-4-phenyl-4,5-dihydro-pyrazol-1-yl]-methylamino-methylene}-benzenesulfonamide] |  | 1 | 
23 | CCCCCCC(C)(C)c1cc(OC)c(C2C=C(CO)[C@H]3C[C@@H]2C3(C)C)c(OC)c1 (stereo in doubt) [HU308, {4-[4-(1,1-Dimethyl-heptyl)-2,6-dimethoxy-phenyl]-6,6-dimethyl-bicyclo[3.1.1]hept-2-en-2-yl}-methanol, reference compound] |  |  | Ki (hamster SUR1): 0.398 µM
24 | CNC(=NS(=O)(=O)N1CCCCC1)N1C[C@H](c2ccccc2)C(c2ccc(Cl)cc2)=N1 [Piperidine-1-sulfonic acid [3-(4-chloro-phenyl)-4-phenyl-4,5-dihydro-pyrazol-1-yl]-methylamino-methyleneamide] |  | 1.58 | 
25 | Cc1ccc(Cn2nc(C(=O)N[C@@H]3C(C)(C)[C@@H]4CC[C@@]3(C)C4)cc2-c2ccc(Cl)c(C)c2)cc1 [SR 144528, reference compound] |  | 0.126 | 
26 | CCCCCCC(C)(C)c1cc(O)c2c(c1)OC(C)(C)[C@@H]1CC=C(CO)CC21 (stereo partly shown) [HU-210, 3-(1,1-Dimethyl-heptyl)-9-hydroxymethyl-6,6-dimethyl-6a,7,10,10a-tetra hydro-6H-enzo[c]chromen-1-ol, reference compound] |  | 0.794 | 
27 | CCCCCOc1c(OC)ccc2cc(C(=O)NCc3ccc4c(c3)OCO4)c(=O)[nH]c12 [JTE-907, 7-Methoxy-2-oxo-8-pentyloxy-1,2-di-hydro-quinoline-3-carboxylic acid (benzo[1,3]dioxol-5-ylmethyl)-amide, reference compound] |  | 0.794 | 
28 | CN1CCCC1CN/C(=N\S(=O)(=O)c1ccc(Cl)cc1)N1CC(c2ccccc2)C(c2ccc(Cl)cc2)=N1 (stereo not shown) [4-Chloro-N-{[3-(4-chloro-phenyl)-4-phenyl-4,5-dihydro-pyrazol-1-yl]-[(1-methyl-pyrrolidin-2-ylmethyl)-amino]-methylene}-benzenesulfonamide] | 5.1 |  | 
29 | Cc1c(NC(=O)c2ccccc2)nc(-c2ccc(Cl)cc2Cl)n1-c1ccc(Cl)cc1 [N-[1-(4-Chloro-phenyl)-2-(2,4-dichloro-phenyl)-5-methyl-1H-imidazol-4-yl]-benzamide] |  | 2 | 
